The values below come from patent US7759392B2, “Pharmaceutical compounds” (Nicox S.A., priority 1999, dated 2010).

The format of data set [1] is biochemical. On the procedure:
Test 5 is a […] test wherein 0.1 ml aliquots of 10^−4 M methanolic solutions of the tested products are added to test tubes containing a solution formed by 0.2 ml of 2 mM deoxyribose, 0.4 ml of phosphate buffer pH 7.4 100 mM and 0.1 ml of 1 mM Fe^II(NH4)2(SO4)2 in 2 mM HCl. The test tubes are then maintained at 37° C. for one hour. Then in each test tube 0.5 ml of a 2.8% solution in trichloroacetic acid water and 0.5 ml of an aqueous 0.1 M solution of thiobarbituric acid are added, in the order. A reference blank is formed by adding to a test tube containing only the above described aqueous solution of reactants 0.1 ml of methanol. […] A pink coloration is developed the intensity of which is proportional to the quantity of deoxyribose undergone to radical oxidative degradation. The solutions are cooled at room temperature and their absorbances are read at 532 nm against the blank. The inhibition induced by the precursor of B or B1 or C=-Tc-Y—H in the confront of radical production by Fe^II is determined by means of the following formula: (1−As/Ac)×100 wherein As and Ac are respectively the absorbance values of the solution containing the tested compound+the iron salt and that of the solution containing only the iron salt, the compound meets test 5 when the inhibition percentage of radical production as above defined from the precursor of B is higher than or equal to 50%. […]

Another data set relates to gastrointestinal mucosa. As to conditions: male, Wistar, rat, in vivo, 6 h. As for the experimental part: Gastric lesions induced by administration of the compounds of the invention in the confront of the corresponding drug precursor.
The animals have been sacrificed 6 hours after the administration. The gastrointestinal mucosa has been removed and inspected. The incidence of the gastrointestinal damage has been evaluated as described in experiment F1.

Data set [2] concerns human endothelial cells of the umbilical vein. In words: Experiment F6: apoptosis (DNA fragmentation) induced in endothelial cells by hydrogen peroxide. The class given is cell-based. As to conditions: Endothelial cell, products 100 mmoles/l, hydrogen peroxide 200 mmoles/l, 18 hours, read-out: Apoptosis % (respect to the controls treated only with CIP). An excerpt: It has been Evaluated the Activity of Some of the Compounds Object of the Present Invention and of the Corresponding Precursor Drugs in Inhibiting DNA Degradation (Apoptosis) in Endothelial Cells Exposed to the Action of Hydrogen Peroxide (HP)
Hydrogen peroxide is a mild oxidant and is considered as an essential mediating agent in pathologies associated with oxidative stress (B. Halliwell, J. Gutteridge “Free Radicals in Biology and Medicine”, page 416, 1993). Therefore the pharmacological activity of compounds to be used under oxidative stress conditions is evaluated through their capability of neutralizing the cytolesive effects of the hydrogen peroxide (B. Halliwell, J. Gutteridge “Free Radicals in Biology and Medicine”, page 416, 1993).
The method described by Herman et Al. (Herman C., Zeiner M. A., Dimmeler S., Arterioscler. Thromb. Vasc. Biol. 17 (12), 3588-82, 1997).
Human endothelial cells of the umbilical vein are prepared according to a standard method. Fresh umbilical veins, just removed, are filled with a solution of collagenase at 0.1% and incubated at 37° C. for 5 minutes.
Subsequently the veins are perfused with medium M 199 (GIBCO, Grand Island, N.Y.) pH 7.4 containing 20% of human serum. The cells are collected from the perfusate by centrifugation at 800 rpm and harvested in culture flasks T-75, pretreated with human fibronectin. […]

Data set [3] shares this test system. In words: Test 2 (CIP): apoptosis (DNA fragmentation) induced by cumene hydroperoxide in endothelial cells. As to conditions: drug 10^-4 M; CIP 5 mM. The data set is classed as cell-based. As for the experimental part:
Test 2 (CIP): Protection parameter of endothelial cell against the oxidative stress induced by cumene hydroperoxide (CIP).
Human endothelial cells of the umbilical vein are prepared according to an usual standard procedure. Fresh umbilical veins are filled with a 0.1% by weight collagenase solution and incubated at 37° C. for 5 minutes.
The cells are collected from the perfusate by centrifugation and harvested in culture flasks T-75, pretreated with human fibronectin. The cells are then harvested in the same medium, further added with 10 ng/ml of bovine hypothalamic growth factor. When the cells of the primary cell culture (i.e. that directly obtained from ex-vivo) form a single layer of confluent cells (about 8,000,000 cells/flask), the culture is stopped and the layers washed and trypsinized. The cellular suspensions are transferred into the wells of a cell culture plate having 24 wells, half of which is then additioned with the same culture medium containing the drug at a 10^−4M concentration, and harvested in a thermostat at 37° C. at a constant moisture. Only the cells coming from said first sub-cultures are used for the experiments with cumene hydroperoxide (CIP).
Before starting the test, the cellular culture medium is removed and the cellular layers are carefully washed with a physiologic solution at a temperature of 37° C. The wells of the culture plate are then incubated for one hour with CIP at a 5 mM concentration in the culture medium. […] 5 replicates for each sample are carried out.
Human endothelial cells of the umbilical vein are prepared according to a standard method. Fresh umbilical veins are filled with a collagenase solution 0.1% by weight and incubated at 37° C. for 5 minutes.
The cells are collected from the perfusate by centrifugation at 800 rpm and harvested in culture flasks T-75, pretreated with human fibronectin. Cells are then harvested in the same medium, added with bovine hypothalamic growth factor (100 ng/ml). When the cells of the primary cell culture (the cells directly removed from ex-vivo umbilical vein) form a single layer of confluent cells (about 8,000,000 cells/flask), harvesting is stopped and the layers are washed and trypsinized. The cellular suspensions are transferred into wells of a culture plate having 24 wells, half of said wells being added with the same culture medium containing the drug at a 10^−4M concentration, and harvested in a thermostat at 37° C. at a constant moisture (90%), CO2=5%. When the drug is not soluble in the culture medium, it is formerly dissolved in a small amount of dimethylsulphoxide. The maximum amount of dimethylsulphoxide which can be added to the culture medium is 0.5%. Only the cells coming from these first subcultures are used for the tests with cumene hydroperoxide (CIP).
Before starting the test, the cellular culture medium is removed and the cellular layers are carefully washed with a standard physiologic solution buffered with phosphate 0.1 M pH 7.0, at the temperature of 37° C. The content of each well is then incubated for one hour with a CIP suspension in the culture medium at a 5 mM concentration. Evaluation of the cellular damage (apoptosis) is carried out by determining the percent variation of the DNA fragmentation in the cultures containing the drug+CIP with respect to the controls treated with CIP only. […] The fluorescence of each sample was determined on 5 replicates. Statistic evaluation has been made with t Student test (p<0.01).

Another data set has as its system erythrocytes. In words: Test 4A: inhibition of erythrocyte haemolysis induced by cumene hydroperoxide. As to conditions: 2 mM; for % Haemolysis inhibition: preincubated 30 minutes, cumene hydroperoxide 270 μM, at Tmax.
In another data set the test system is liver. Briefly: Example F10: liver safety (AST, ALT, glutathione, bilirubin). The class given is in vivo, rat. As to conditions: rats, 6 hours; for AST %: i.p. (NO-paracetamol 1.4 g/Kg, paracetamol 1.16 g/Kg); for AST % / ALT % / Bilirubin % / Glutathione %: % of vehicle group; for ALT % / Bilirubin % / hepatic damage (in words) / Glutathione %: i.p.; for Glutathione %: liver glutathione. As for the experimental part: After 6 hours the animals were killed by cervical dislocation, trunk blood collected and plasma analysed for aspartate aminotransferase (AST) and alanine aminotransferase (ALT) activity, liver glutathione and bilirubin concentration.

The subject of data set [4] is carrageenan rat paw edema. Briefly: Carrageenan rat paw edema. The data set is classed as in vivo. As to conditions: for Antiinflammatory activity % paw edema inhibition: rat, intraperitoneally prior to carrageenan, 3 h. As for the experimental part: (§1) Antiinflammatory and analgesic activity have been measured according to carrageenan rat paw edema and acetic acid mouse writhing methods.
Experiments were conducted as described by Al-Swayeh et al., Brit. J. Pharmacol. 129, 343-350 2000). Hind paw volume was determined by plethysmography before and after 3 h after interplantar carrageenan injection (100 microliter, 2% w/v). The compounds were given intraperitoneally […] prior to carrageenan injection. At the end of the experiment animals were killed by cervical dislocation and exsanguination. The Results shown in Table IX are expressed as % of paw edema inhibition, i.e. the paw volume of the controls (vehicle) subtracted of the paw volume of the treated and the obtained difference divided by the paw volume of the controls.
(The carrageenan paw model is a standard test of acute inflammation.)

Data set [5] relates to acetic acid mouse writhing. In words: Acetic acid mouse writhing. The class given is in vivo. As for the experimental part: as §1
Experiments were conducted as described by Moore et al. (Br. J. Pharmacol. 102, 198-202 1990). The compounds were given orally 15 minutes prior to intraperitoneal acetic acid (2% w/v in saline pH 2.7, 10 ml/Kg). Mice were transferred immediately to individual observation cages and the number of abdominal constrictions monitored over the following 30 minutes. At the end of the observation period the animals were killed by cervical dislocation and exsanguination. Results are expressed as the number of abdominal constrictions (writhings) per 30 minutes test period, expressed as percentage to those observed in the control group, and are reported in Table IX.
For orientation: Writhing tests count abdominal constrictions after an irritant is injected.

“Also recorded” adds a separate entry of the source. Where two headings read alike, the source gives them in different places.

Regarding `OCCCCO` [1,4-Butandiol], in data set [1], the “% Radical inhibition from Fe^II” value is listed as 0%.

`NCCCC(O)(P(=O)(O)O)P(=O)(O)O` [Alendronate, sodic alendronate]: the Gastropathy % incidence with gastrointestinal mucosa was 100%. Moreover, in data set [2], the activity at 100000 µM amounted to 18%. The “inhibition of apoptosis induced by CIP (in words, p<0.01)” value in data set [3] is listed as “do not significantly inhibit apoptosis”.

For the compound `OCCNCCO` [Diethanolamine], in the data set on erythrocytes, the “inhibition of haemolysis induced by cumene hydroperoxide (in words)” value is listed as “does not inhibit haemolysis” and the “% Haemolysis inhibition” value is listed as 2.5%.

Take `OCCOCCO` [Diethylenglycol]: the “% Radical inhibition from Fe^II” value in data set [1] (10^-4 M methanolic solution, 37° C. one hour, absorbance 532 nm) was 0%. Also, the “% Haemolysis inhibition” value in the data set on erythrocytes was 33.4%.

As to `CC(=O)Nc1ccc(OC(=O)CCCO[N+](=O)[O-])cc1` [Example 1, 4-nitroxybutyric acid 4′-acetylamino phenyl ester], in the data set with liver, the AST % is 160%, the ALT % is 57%, the Bilirubin % turned out to be 136% and the Glutathione % amounted to 49%. For the same compound, the “hepatic damage (in words)” value with liver (listed as NO-paracetamol) was “much lower increases of AST and ALT; also recorded: the bilirubin concentration is lower than that in the control groups; also recorded: able to spare the liver”. Also, in data set [4] (carrageenan paw edema), the “antiinflammatory activity compared with paracetamol (in words)” value was “much more active in both tests than paracetamol”. Further, the “Antiinflammatory activity % paw edema inhibition” value in data set [4] is 69%. The “analgesic activity compared with paracetamol (in words)” value in data set [5] (acetic acid writhing) was “much more active in both tests than paracetamol”.

In the case of `CC(=O)Nc1ccc(O)cc1` [Paracetamol, paracetamol], in the data set with liver, the AST % came out at 330%, the “hepatic damage (in words)” value is “causes hepatic damage”, the ALT % is listed as 171% and the Bilirubin % turned out to be 200%. Moreover, in the data set on liver, the Glutathione % worked out at 52%. The “Antiinflammatory activity % paw edema inhibition” value in data set [4] was 34%. The “inhibition of apoptosis induced by CIP (in words, p<0.01)” value in data set [3] is listed as “do not significantly inhibit apoptosis; also recorded: not significantly different with respect to that of the controls”. Also, the “Analgesic activity % writhing inhibition” value in data set [5] (mice, orally 15 minutes prior to intraperitoneal acetic acid, 30 minutes) worked out at 40%.
